Where a name gives a salt, the structure may show the parent alone.
Assays:
[1] = orally administered fingolimod HCl; cited from earlier work
[2] = In vitro passive delivery of Fingolimod HCl through epidermis of cadaver skin, Franz cell (control); assay type: in vitro ADME; settings: for Passive Maximum delivery efficiency: donor 0.5% Fingolimod HCl solution, 8 hr; for Passive Maximum delivery efficiency / Passive Average delivery efficiency: 1.77 cm2; for Passive Average delivery efficiency: 48 hr
Excerpt: Passive delivery under the same experimental conditions was also concurrently investigated with the iontophoretic delivery and employed as a control. […] The maximum efficiency could be reached at a concentration of less than 0.25%. After 8 hr., some passive delivery of fingolimod HCl through the skin was also observed. This observation may have resulted from the imperfection of the skin and the experimental design. In this study, the presence of pores from the micro-sized damage of the epidermis during the preparation of the epidermal membrane and from the appendages (hair follicles, sweat ducts) might facilitate the contact between donor and receptor site and contribute to the passive delivery of fingolimod HCl solution into the receptor solution.

[3] = In vitro iontophoretic delivery (active + passive) of Fingolimod HCl through epidermis of cadaver skin, Franz cell; assay type: in vitro ADME; settings: for Active + passive Maximum delivery efficiency: donor 0.5% Fingolimod HCl solution, 8 hr; for Active + passive Maximum delivery efficiency / Active + passive Average delivery efficiency: 0.425 mA, 1.77 cm2; for Active + passive Average delivery efficiency: Ag anode/AgCl cathode, 48 hr
[4] = donor 0.25% fingolimod HCl solution, receptor 0.09% NaCl
[5] = donor 0.50% fingolimod HCl solution, receptor 0.09% NaCl
[6] = donor 0.75% fingolimod HCl solution, receptor 0.09% NaCl
[7] = donor 1% fingolimod HCl solution, receptor 0.09% NaCl
[8] = donor 2% fingolimod HCl solution, receptor 0.09% NaCl

- Passive Maximum delivery efficiency ([2]; receptor 0.09% NaCl): 0 ug/cm2/hr
- Passive Maximum delivery efficiency ([2]; receptor 0.9% NaCl): 0 ug/cm2/hr
- Passive Average delivery efficiency [2, 4]: 0.8 ug/cm2/hr
- Passive Average delivery efficiency [2, 5]: 0.9 ug/cm2/hr
- Passive Average delivery efficiency [2, 6]: 0.8 ug/cm2/hr
- Passive Average delivery efficiency [2, 7]: 0.7 ug/cm2/hr
- Passive Average delivery efficiency [2, 8]: 1.4 ug/cm2/hr
- passive delivery detected ([2]; over an 8 h period, 0.5% Fingolimod HCl solution): no Fingolimod HCl delivery was detected
- delivery efficiency (active+passive) ([3]; 0.25, 0.5, 0.75, 1 and 2% fingolimod HCl solutions, current 0.425 mA, area 1.77 cm^2): about 4.5 μg/cm2/hr
- Active + passive Maximum delivery efficiency ([3]; Ag/AgCl electrodes, receptor 0.9% NaCl): 5.0 ug/cm2/hr
- Active + passive Maximum delivery efficiency ([3]; Zn/AgCl electrodes, receptor 0.09% NaCl): 16.8 ug/cm2/hr
- Active + passive Maximum delivery efficiency ([3]; Zn/AgCl electrodes, receptor 0.9% NaCl): 5.8 ug/cm2/hr
- Active + passive Average delivery efficiency [3, 4]: 4.8 ug/cm2/hr
- Active + passive Average delivery efficiency [3, 5]: 5.0 ug/cm2/hr
- Active + passive Average delivery efficiency [3, 6]: 4.5 ug/cm2/hr
- Active + passive Average delivery efficiency [3, 7]: 4.5 ug/cm2/hr
- Active + passive Average delivery efficiency [3, 8]: 4.2 ug/cm2/hr
Compound: CCCCCCCCc1ccc(CCC(N)(CO)CO)cc1 [Fingolimod HCl, 2-amino-2-[2-(4-octylphenyl)ethyl]propane-1,3-diol]
- peak to trough fluctuations, non-phosphorylated fingolimod [1]: ≤ 20%
- peak to trough fluctuations, phosphorylated (active) form of fingolimod [1]: ≤ 45%
